Active and inactive are the calls of the source. No rule for the calls is given here.
Each compound was assayed against Kallikrein-5 (Homo sapiens) (UniProt Q9Y337) (assay: human KLK5 inhibitor potency, dose response, biochemical, 1536-well (AID 1431)). Details: recombinant KLK5 enzyme activity, fluorogenic substrate.
Sequence of Kallikrein-5 (Homo sapiens) (Q9Y337 67-293 limits assumed): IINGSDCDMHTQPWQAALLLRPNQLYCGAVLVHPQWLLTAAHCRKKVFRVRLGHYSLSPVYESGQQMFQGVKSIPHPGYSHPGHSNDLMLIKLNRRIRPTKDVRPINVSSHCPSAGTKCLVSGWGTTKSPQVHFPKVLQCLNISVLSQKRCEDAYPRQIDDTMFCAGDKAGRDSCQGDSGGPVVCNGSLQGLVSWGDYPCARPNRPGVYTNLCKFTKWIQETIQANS

Row | Structure (SMILES) | IC50
1 | CC1(C)CC(=O)C(C=Nc2ccccc2Sc2ccccc2)=C(O)C1 | > 50 µM (inactive)
2 | COc1ccc(CN2C(=O)c3cccnc3C2Nc2cc(Cl)ccc2OC)cc1 (stereo unspecified) | 7.23 µM
3 | Cc1cc(N2C(=O)CC(Cc3ccc(Cl)cc3)C2=O)no1 (stereo unspecified) | > 50 µM (inactive)
4 | CCC(=O)N1c2ccccc2NC2=C(C(=O)CCC2)C1c1ccc(N(C)C)cc1 (stereo unspecified) | > 50 µM (inactive)
5 | Oc1cccc(NC(=S)N=Nc2c(O)[nH]c3ccccc23)c1 | > 50 µM (inactive)
6 | COc1ccc(N2C(N)=C(C#N)C(c3cccnc3)C3=C2CC(C)(C)CC3=O)cc1 (stereo unspecified) | > 50 µM (inactive)
7 | COc1ccc2c(c1)C(c1ccc([N+](=O)[O-])cc1)=NNC(c1ccco1)=N2 | > 50 µM (inactive)
8 | CC(=O)c1ccc(N2C(=O)C3C(C2=O)C(C(=O)c2ccc(Cl)cc2)N2CCCC32)cc1 (stereo unspecified) | > 50 µM (inactive)
9 | COc1ccc(OC)c(/C=N/Nc2cc(C)nc(N3CCOCC3)n2)c1 | > 50 µM (inactive)
10 | O=c1c(/C=N/O)c(Nc2ccccc2)nc2ccccn12 | > 50 µM (inactive)
11 | O=C1c2ccccc2C(=O)N1/N=C/c1ccc(O)c(O)c1O | > 50 µM (inactive)
12 | Cc1cccc(NC2SC(=O)N(c3ccccc3)C2=O)c1 (stereo unspecified) | > 50 µM (inactive)
13 | N#Cc1c(N)nc2c3c(sc(=N)c2c1N)NC(=O)CC3c1c(F)cccc1Cl (stereo unspecified) | > 50 µM (inactive)
14 | O=C1CC(Sc2ccc(Cl)cc2)C(=O)N1c1ccc2c(c1)OCCO2 (stereo unspecified) | > 50 µM (inactive)
15 | O=C(N/N=C\c1cccc([N+](=O)[O-])c1O)C1COc2ccccc2O1 (stereo unspecified) | > 50 µM (inactive)
16 | O=C1C(C=NCCCN2CCOCC2)=C(O)c2ccccc21 | > 50 µM (inactive)
17 | Oc1ccc2ccccc2c1C=NC12CN3CCN(CN(C3)C1)C2 | > 50 µM (inactive)
18 | CCC/S(C)=N/S(=O)(=O)c1ccc(C)cc1 (stereo unspecified) | > 50 µM (inactive)
19 | CCOC(=O)C1=C(CC)Nc2ccccc2N=C1NC(=O)CCN1C(=O)C2CCCCC2C1=O (stereo unspecified) | > 50 µM (inactive)
20 | CC1=C(C(=O)N2CCCCC2)C(c2cccs2)C2=C(CCCC2=O)N1 (stereo unspecified) | > 50 µM (inactive)
21 | N#CC1=C(N)NC(SCc2ccccc2)=C(C#N)C12CCCC2 | > 50 µM (inactive)
22 | Cc1cc(N/N=C/c2ccc(O)cc2)nc(NS(=O)(=O)c2ccccc2)n1 | > 50 µM (inactive)

Row | Structure (SMILES) | IC50
23 | O=c1[nH]c(=O)n(Cc2ccco2)c(O)c1C=NCc1ccco1 | > 50 µM (inactive)
24 | Cc1cc2c(C)nc(N/N=C/c3ccc([N+](=O)[O-])cc3)nc2o1 | > 50 µM (inactive)
25 | CCN(CC)C(=O)c1sc(NC(=O)Cc2ccccc2)c(C#N)c1C | > 50 µM (inactive)
26 | O=C1CC(SCc2nc3ccccc3[nH]2)C(=O)N1c1ccc(F)cc1 (stereo unspecified) | > 50 µM (inactive)
27 | CCOc1cc(/C=N/Nc2nc(Nc3ccccc3)nc(N3CCCCC3)n2)ccc1OCC(=O)O | > 50 µM (inactive)
28 | O=C1CC(c2ccccc2)CC(O)=C1C=NCCN1CCN(C(=S)Nc2cccc(Cl)c2)CC1 (stereo unspecified) | > 50 µM (inactive)
29 | O=C(N/N=C/c1cc([N+](=O)[O-])ccc1O)c1cccc2cc[nH]c12 | > 50 µM (inactive)
30 | COc1ccc2cc(C3C(C#N)=C(N)OC(C)=C3C(C)=O)c(Cl)nc2c1 (stereo unspecified) | > 50 µM (inactive)
31 | Cc1cc(C)n(CC2CC(=O)N(c3ccc(Cl)c(Cl)c3)C2=O)n1 (stereo unspecified) | > 50 µM (inactive)
32 | Cc1c(-c2cccs2)[n+](=O)c2c(n1[O-])CCC2 | > 50 µM (inactive)
33 | COc1cccc(N2C(=O)CC(NNc3nc4ccccc4s3)C2=O)c1 (stereo unspecified) | > 50 µM (inactive)
34 | O=C(O)c1cc(/C=N\O)ccc1OCc1ccccc1 | > 50 µM (inactive)
35 | Cc1ccccc1NC(=O)Cn1c(O)c(N=NC(=O)c2ccccc2O)c2ccccc21 | > 50 µM (inactive)
36 | N#C/C(=N\O)c1nc2ccccc2s1 | > 50 µM (inactive)
37 | CC(C)n1c(=O)c(C=Nc2ccc(Br)cc2)c(O)n(Cc2ccco2)c1=O | > 50 µM (inactive)
38 | COc1ccc(C2C(C(C)=O)=C(O)C(=O)N2c2nccs2)cc1OC (stereo unspecified) | 26 µM
39 | CCOC(=O)c1ccc(N=C(c2ccccc2)c2c(O)n(C)c(=O)n(C)c2=O)cc1 | > 50 µM (inactive)
40 | Cc1ccc(-c2[nH]nc3c2C(c2ccoc2)C(C#N)=C(N)O3)cc1C (stereo unspecified) | > 50 µM (inactive)
41 | Cc1ccc(NC2c3ncccc3C(=O)N2c2ccccc2C)cc1C (stereo unspecified) | 5.53 µM
42 | COC(=O)c1cc(N2C(=O)C3C(C2=O)C2(C)C=CC3(C)O2)ccc1Cl (stereo unspecified) | > 50 µM (inactive)
43 | COc1cccc(N2CCN(C3CC(=O)N(c4ccc(F)c(Cl)c4)C3=O)CC2)c1 (stereo unspecified) | > 50 µM (inactive)
44 | CC(C)(CO)N=Cc1c(O)[nH]c2ccccc12 | > 50 µM (inactive)

Row | Structure (SMILES) | IC50
45 | COc1ccc(C2C(C(=O)Nc3ccccc3OC)=C(C)Nc3ncnn32)cc1 (stereo unspecified) | > 50 µM (inactive)
46 | CCOC(=O)C1=C(N)OC2=C(C(=O)CCC2)C12C(=O)N(CC(N)=O)c1ccccc12 (stereo unspecified) | > 50 µM (inactive)
47 | COc1ccc(Oc2ccccc2/C=N/O)cc1 | > 50 µM (inactive)
48 | Cc1ccc(Cn2c(O)c(N=NC(=S)Nc3ccccc3F)c3cc(S(=O)(=O)N4CCOCC4)ccc32)cc1 | > 50 µM (inactive)
49 | Cc1cc(/C(O)=C2\C(=O)C(=O)N(CCN(C)C)C2c2ccncc2)ccc1OCc1ccccc1 (stereo unspecified) | > 50 µM (inactive)
50 | COc1ccc(-c2[nH]nc3c2C(c2ccsc2)C(C#N)=C(N)O3)cc1 (stereo unspecified) | > 50 µM (inactive)
51 | CC1=C(C(N)=O)C(c2ccccn2)n2nc(-c3ccccc3Cl)nc2N1 (stereo unspecified) | > 50 µM (inactive)
52 | COC(=O)c1[nH]c(C)c(/C(O)=C2\C(=O)C(=O)N(CCN(C)C)C2c2cccc(OC)c2OC)c1C (stereo unspecified) | > 50 µM (inactive)
53 | O=C1CC(Nc2ccccc2)C(=O)N1c1ccc(N2CCOCC2)cc1 (stereo unspecified) | > 50 µM (inactive)
54 | CCOC(=O)C1CCCN(C2CC(=O)N(c3ccc(C)cc3)C2=O)C1 (stereo unspecified) | > 50 µM (inactive)
55 | CCC(=O)N1CCN(CCN=CC2=C(O)CC(C)(C)CC2=O)CC1 | > 50 µM (inactive)
56 | COc1ccc2c(c1)C(c1ccc(N3CCOCC3)cc1)=NNC(c1cccnc1)=N2 | > 50 µM (inactive)
57 | CCOC(=O)C1(C)C=C(Nc2cccc(OC)c2)C(=O)N1c1ccccc1 (stereo unspecified) | > 50 µM (inactive)
58 | COC(/C=C/Nc1ccc(Br)cc1)=C(C#N)C#N | > 50 µM (inactive)
59 | CC1(C)CC(=O)CC(=NCC(=O)O)C1 | > 50 µM (inactive)
60 | O=C(Nc1ccccc1)c1cccc(N2C(=O)CCC2=O)c1 | > 50 µM (inactive)
61 | COc1ccc(N2C(=O)CC(Nc3cccc([N+](=O)[O-])c3)C2=O)cc1 (stereo unspecified) | > 50 µM (inactive)
62 | CCCC(C)C1C(C#N)=C(N)Oc2c1c(=O)oc1ccccc21 (stereo unspecified) | > 50 µM (inactive)
63 | COC(=O)c1sc(N2C(=O)C(O)=C(C(=O)c3ccc(C)o3)C2c2ccc(F)cc2)nc1C (stereo unspecified) | > 50 µM (inactive)
64 | CC(=O)C1=C(C)NC(C)=C(C(C)=O)C1c1cccs1 | > 50 µM (inactive)
65 | CC1CC(C)(C)n2c(O)c(N=NC(N)=S)c3cccc1c32 (stereo unspecified) | > 50 µM (inactive)
66 | COc1cccc(/C(O)=C2/C(=O)C(=O)N(CCCN3CCOCC3)C2c2ccncc2)c1 (stereo unspecified) | 46.3 µM
